Measurements as given in US9233940B2, “Cyclic peptidomimetic compounds as immunomodulators” (Aurigene Discovery Technologies Limited, priority 2014, dated 2016).

target: T1, recombinant mouse PD-L1 (Mus musculus, UniProt Q9EP73); test: Rescue of mouse splenocyte proliferation in the presence of recombinant PD-L1 (CFSE proliferation assay); format: cell-based; conditions: 72 h, 100 nM compound; CFSE-labelled mouse splenocytes + anti-CD3/CD28 + PD-L1, 72 h; normalised to stimulated splenocytes as 100%; read-out: Percent rescue of splenocyte proliferation @ 100 nM compound concentration
T1 construct: purchased R&D Systems 1019-B7-100
Method: Rescue of Mouse Splenocyte Proliferation in the Presence of Recombinant PD-L1
Recombinant mouse PD-L1 (rm-PDL-1, cat no: 1019-B7-100; R&D Systems) were used as the source of PD-L1.
Mouse splenocytes harvested from 6-8 weeks old C57 BL6 mice; RPMI 1640 (GIBCO, Cat #11875); DMEM with high glucose (GIBCO, Cat # D6429); Fetal Bovine Serum [Hyclone, Cat # SH30071.03]; Penicillin (10000 unit/ml)-Streptomycin(10,000 μg/ml) Liquid (GIBCO, Cat #15140-122); MEM Sodium Pyruvate solution 100 mM (100×), Liquid (GIBCO, Cat #11360); Nonessential amino acid (GIBCO, Cat #11140); L-Glutamine (GIBCO, Cat #25030); Anti-CD3 antibody (eBiosciences-16-0032); Anti-CD28 antibody (eBiosciences-16-0281); ACK lysis buffer (1 mL) (GIBCO, Cat #-A10492); Histopaque (density-1.083 gm/mL) (SIGMA 10831); Trypan blue solution (SIGMA-T8154); 2 mL Norm Ject Luer Lock syringe—(Sigma 2014-12); 40 μm nylon cell strainer (BD FALCON 35230); Hemacytometer (Bright line-SIGMA Z359629); FACS Buffer (PBS/0.1% BSA): Phosphate Buffered Saline (PBS) pH 7.2 (HiMedia TS1006) with 0.1% Bovine Serum Albumin (BSA) (SIGMA A7050) and sodium azide (SIGMA 08591); 5 mM stock solution of CFSE: CFSE stock solution was prepared by diluting lyophilized CFSE with 180 μL of Dimethyl sulfoxide (DMSO C2H6SO, SIGMA-D-5879) and aliquoted in to tubes for further use. Working concentrations were titrated from 10 μm to 1 μm. (eBioscience-650850-85); 0.05% Trypsin and 0.02% EDTA (SIGMA 59417C); 96-well format ELISA plates (Corning CLS3390); BD FACS caliber (E6016); Recombinant mouse B7-H1/PDL1 Fc Chimera, (rm-PD-L1 cat no: 1019-B7-100).
Splenocytes harvested in a 50 mL falcon tube by mashing mouse spleen in a 40 μm cell strainer were further treated with 1 ml ACK lysis buffer for 5 mins at room temperature. After washing with 9 mL of RPMI complete media, cells were re-suspended in 3 ml of 1×PBS in a 15 mL tube. 3 mL of Histopaque was added carefully to the bottom of the tube without disturbing overlaying splenocyte suspension. After centrifuging at 800×g for 20 min. at room temperature, the opaque layer of splenocytes was collected carefully without disturbing/mixing the layers. Splenocytes were washed twice with cold 1×PBS followed by total cell counting using Trypan Blue exclusion method and used further for cell based assays.
Splenocytes were cultured in RPMI complete media (RPMI+10% fetal bovine serum+1 mM sodium pyruvate+10,000 units/mL penicillin and 10,000 μg/mL streptomycin) and maintained in a CO2 incubator with 5% CO2 at 37° C.
CFSE is a dye that passively diffuses into cells and binds to intracellular proteins. 1×10^6 cells/ml of harvested splenocytes were treated with 5 μm of CFSE in pre-warmed 1×PBS/0.1% BSA solution for 10 mins at 37° C. Excess CFSE was quenched using 5 volumes of ice-cold culture media to the cells and incubated on ice for 5 min. CFSE labelled splenocytes were further given three washes with ice cold complete RPMI media. CFSE labelled 1×10^5 splenocytes added to wells containing either MDA-MB231 cells (1×10^5 cells cultured in high glucose DMEM medium) or recombinant human PDL-1 (100 ng/mL) and test compounds. Splenocytes were stimulated with anti-mouse CD3 and anti-mouse CD28 antibody (1 μg/mL each), and the culture was further incubated for 72 h at 37° C. with 5% CO2. Cells were harvested and washed thrice with ice cold FACS buffer and % proliferation was analysed by flow cytometry with 488 nm excitation and 521 nm emission filters.
Percent splenocyte proliferation was analysed using cell quest FACS program and percent rescue of splenocyte proliferation by compound was estimated after deduction of % background proliferation value and normalising to % stimulated splenocyte proliferation (positive control) as 100%.
Background proliferation: Splenocytes+anti-CD3/CD28+PD-L1
Stimulated splenocytes: Splenocytes+anti-CD3/CD28 stimulation
Compound proliferation: Splenocytes+anti-CD3/CD28+PD-L1+Compound […]

T1 sequence (Q9EP73 with tags, fused parts or gaps limits assumed): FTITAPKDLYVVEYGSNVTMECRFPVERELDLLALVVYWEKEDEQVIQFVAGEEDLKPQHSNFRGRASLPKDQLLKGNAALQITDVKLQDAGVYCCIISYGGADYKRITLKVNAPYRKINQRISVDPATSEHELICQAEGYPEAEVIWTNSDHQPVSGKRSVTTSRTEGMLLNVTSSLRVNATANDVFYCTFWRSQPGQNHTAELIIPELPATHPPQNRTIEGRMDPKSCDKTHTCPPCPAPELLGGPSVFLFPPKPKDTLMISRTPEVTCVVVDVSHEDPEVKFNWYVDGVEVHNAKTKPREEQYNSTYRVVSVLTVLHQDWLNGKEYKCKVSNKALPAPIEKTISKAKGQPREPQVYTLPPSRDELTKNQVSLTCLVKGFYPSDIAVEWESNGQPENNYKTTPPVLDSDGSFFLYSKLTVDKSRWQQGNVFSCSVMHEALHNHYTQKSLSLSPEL

| Compound | activity at 0.1 µM |
| --- | --- |
| NC(=O)C[C@@H]1NC(=O)N[C@H](CO)C(=O)NCCOCCOCC(=O)N[C@@H](CO)C(=O)NNC1=O [Compound 9] | 73% |
| CC(O)[C@@H]1NC(=O)N[C@@H](CC(N)=O)C(=O)NNC(=O)[C@H](CO)NC(=O)COCCOCCNC1=O (stereo partly drawn) [Compound 1] | 95% |
| NC(=O)C[C@@H]1NC(=O)N[C@@H](CC(=O)O)C(=O)NCCOCCOCC(=O)N[C@@H](CO)C(=O)NNC1=O [Compound 8] | 68% |
| CC(O)[C@@H]1NC(=O)N[C@H](CC(N)=O)C(=O)NNC(=O)[C@@H](C(C)O)NC(=O)COCCOCCNC1=O (stereo partly drawn) [Compound 10] | 89% |
| CC(O)[C@H]1NC(=O)COCCOCCNC(=O)[C@@H](CO)NC(=O)N[C@H](CC(N)=O)C(=O)N(C)NC1=O (stereo partly drawn) [Compound 3] | 58% |
| CC(O)[C@H]1NC(=O)COCCOCCNC(=O)[C@@H](CO)NC(=O)N[C@H](CC(N)=O)C(=O)NNC1=O (stereo partly drawn) [Compound 2] | 94% |

The remaining lines, values ahead:

| activity at 0.1 µM | Compound |
| --- | --- |
| 53% | CCC(C)[C@@H]1NC(=O)N[C@@H](CC(N)=O)C(=O)NNC(=O)[C@H](CO)NC(=O)COCCOCCNC1=O (stereo partly drawn) [Compound 5] |
| 49% | CC(O)[C@H]1NC(=O)CCCCCCNC(=O)[C@@H](CO)NC(=O)N[C@H](CC(N)=O)C(=O)NNC1=O (stereo partly drawn) [Compound 4] |

same assay, conditions: CFSE-labelled mouse splenocytes + anti-CD3/CD28 + PD-L1, 72 h, normalised to stimulated splenocytes as 100%

| Percent rescue of splenocyte proliferation @ 100 nM compound concentration | Compound |
| --- | --- |
| 91 | NC(=O)C[C@@H]1NC(=O)N[C@H](CO)C(=O)NCCOCCOCC(=O)N[C@@H](CO)C(=O)NNC1=O [Compound 12] |
